Consider one compound from paper PMC11926788, “Effect of SSR504734, a Selective Glycine Transporter Type 1 Inhibitor, on Seizure Thresholds, Neurotransmitter Levels, and Inflammatory Markers in Mice” (ACS Chemical Neuroscience, 2025).

Structures can show the parent of a compound that is named as a salt.

Data set [1] concerns i.v. PTZ-induced seizures in mice. The experiment in a line: Intravenous (i.v.) PTZ seizure threshold test. Format: in vivo. The settings on record: VPA 150 mg/kg. As for the experimental part:
Mice were individually placed in a plastic restrainer (12 cm long, 3 cm inner diameter), and the lateral vein of each mouse was catheterized using a 27-gauge needle (Sterican, B. Braun Melsungen, Melsungen, Germany). The needle was attached by polyethylene tubing (PE20RW, Plastics One Inc., Roanoke, VA, USA) to a 10 mL plastic syringe containing 1% solution of PTZ in saline (Sigma-Aldrich, St. Louis, MO, USA) and mounted to a syringe pump (model Physio 22, Hugo Sachs Elektronik, Harvard Apparatus GmbH, March-Hugstetten, Germany). Piece of adhesive tape was used to secure the needle. The proper placement of the needle in the vein was verified by the appearance of blood in the tubing. During the test, mice were placed in a transparent box for observation. The PTZ solution was administered to freely moving mice at a constant rate of 0.2 mL/min. The time intervals from the initiation of PTZ infusion to the occurrence of the three following end points, i.e., (1) the first myoclonic twitch, (2) generalized clonic seizure with loss of righting reflex, and (3) forelimb tonus, were recorded. The PTZ infusion was terminated when tonic seizures, which were often fatal for the mice, began. All mice that survived were euthanized immediately. The thresholds were calculated separately for each end point using the following formula: threshold dose of PTZ (mg/kg) = infusion duration (s) × infusion rate (mL/s) × PTZ concentration (mg/mL)/body weight (kg). Seizure threshold was expressed as the amount of PTZ (mg/kg) ± SD (standard deviation) needed to produce the first observable sign of each end point. Each group consisted of 12–15 animals.

Data set [2] relates to tonic hindlimb extension in the MEST test in mice. The experiment in a line: Maximal electroshock seizure threshold (MEST) test. Format: in vivo. As for the experimental part:
A sinusoidal current alternation was delivered via saline-soaked transcorneal electrodes. Before stimulation, an ocular anesthetic (1% tetracaine hydrochloride solution obtained from Sigma-Aldrich, St. Louis, MO, USA) was administered to each eye of the mice. During stimulation, the mice were manually immobilized in a hand for 3–5 s and immediately relocated to a transparent box for behavioral observation after the stimulation. Hindlimb tonic extension was taken as an end point. Two experimental approaches were employed: (1) the maximal electroshock seizure threshold (MEST) test at varied current intensities and (2) the maximal electroshock (MES) test at a fixed current intensity.
In the MEST test, seizure thresholds were determined using the “up-and-down” method described by Kimball et al.[28] […] Each mouse was stimulated only once.
On the technique in general: In the maximal electroshock model the usual endpoint is tonic extension of the hind limbs.

The test system of the next data set is GlyT1. The settings on record: in vitro assay; cited from earlier work.
Data set [3] is described as follows: Metabolic stability in human liver microsomes (HLMs). Format: in vitro ADME. The procedure:
(§1) A series of in vitro ADME-Tox tests were performed for SSR504734 in order to estimate its drugability. The ADME-Tox parameters including permeability, plasma protein binding, metabolic stability, neurotoxicity, and hepatotoxicity were carried out as described previously.[31],[32] The ability of SSR504734 to penetrate through the biological membrane by passive diffusion was estimated by the Gentest Precoated PAMPA Plate System (Corning, Tewksbury, MA) and expressed as the permeability coefficient (Pe). The protein binding analysis was performed by using the commercial TRANSIL^XL PPB test, which mimics in vitro physiological plasma conditions where human serum albumin (HAS) and alpha-1-acid glycoprotein AGP are present in a 24:1 ratio. The human metabolism of SSR504734 was studied using human liver microsomes (HLMs) provided by Sigma-Aldrich. The hepatotoxicity and neurotoxicity were estimated in cellular models with the use of hepatoma HepG2 and neuroblastoma SH-SY5Y cell lines to perform the preliminary safety tests. The cells were incubated with SSR504734 at the concentration range of 0.1–100 μM. 1 μM cytostatic drug doxorubicin (DX) was used as the reference.

Data set [4] concerns human serum albumin and alpha-1-acid glycoprotein. Description: Plasma protein binding (TRANSIL XL PPB test). The settings on record: ± SD, fraction bound to plasma proteins, read-out: PPB fb (converted). The data set is classed as in vitro ADME. The procedure:
as §1

Data set [5] relates to TNFα, IL-6, IL-1β, TLR4, IL-10, IFN-γ, IL-18 in serum. Description: Inflammatory markers in serum (ELISA). The data set is classed as in vivo, mice. Particulars: 14-day administration, 30 mg/kg i.p. The procedure: ELISA kits were used to determine IL-1-β, IL-6, IL-10, TNF-α, and IFN-γ (EIAAB Science INC, Wuhan, Hubei, China, nos. E0563m, E0079m, E0056m, E0049m, E0133m, E0753m) and IL-18 (Biorbyt Ltd., Cambridge, United Kingdom, no. orb437211) in the liver homogenates and serum. All assays were performed according to the producer’s instructions. All samples were tested in triplicate.
Background: An ELISA detects its analyte on a solid surface through an enzyme-linked reagent.

As for `O=C(NC(c1ccccc1)C1CCCCN1)c1cccc(C(F)(F)F)c1Cl` [SSR504734, 2-chloro-N-[(S)-phenyl[(2S)-piperidin-2-yl]methyl]-3-trifluoromethyl benzamide monohydrochloride], in data set [1] (14-day treatment i.p.), the “effect on thresholds for myoclonic twitch, generalized clonus and forelimb tonus” value is “no significant effect”. The “effect on thresholds for myoclonic twitch, generalized clonus and forelimb tonus” value in data set [1] (single administration i.p.) was “no significant effect”. Further, the “fold increase of seizure threshold (CS50), time-course” value in data set [2] (30 mg/kg i.p., 60 and 120 min after administration, vs control) is on record as roughly 1.3 fold. Also, in data set [2] (30 mg/kg i.p., at 30, 60, 120 and 240 min), the “effect on seizure threshold (CS50), time-course” value is recorded as “significantly raised the seizure threshold”. Further, in data set [2] (14-day repeated treatment, 30 mg/kg i.p.), the “fold increase in CC50 value” was determined as 1.2 fold. Besides, in data set [2] (14-day repeated treatment, 3 and 10 mg/kg i.p.), the “effect on seizure threshold” value is given as “no changes in seizure threshold”. Further, the “effect on threshold for tonic hindlimb extension” value in data set [2] (acute, 10 mg/kg i.p., 60 min before test) is on record as “ineffective”. For the same compound, the “fold increase of current intensity necessary to induce hindlimb tonus” value in data set [2] (acute, 30 mg/kg i.p., 60 min before test) worked out at 1.2 fold. The “fold increase of current intensity necessary to induce hindlimb tonus” value in data set [2] (acute, 50 mg/kg i.p., 60 min before test) came to 1.6 fold. Also, the “IC50 for GlyT1 inhibition” value with GlyT1 is recorded as 7.8 (±2.6) ng/mL. The compound further yielded a metabolized in data set [3] (120 min incubation with HLMs, UPLC analysis) of 5%. The fraction remaining (in general, what is left of the initial amount, in per cent) at 2 h in data set [3] (after 120 min of incubation with human liver microsomes) was 94.7%. For the same compound, in data set [3] (after incubation with HLMs), the “metabolic pathway, metabolite M1” value was “hydroxylation, oxidation, and dehydrogenation”; the “metabolic pathway, metabolite M2” value is listed as “dehydrogenation”; the “metabolic pathway, metabolite M3” value is given as “oxidation”. For the same compound, the fraction unbound in data set [4] was 0.013. Further, in data set [5], the “serum concentration of IFN-γ” value is on record as “no statistically significant differences”, the “serum concentration of IL-1β” value is on record as “significant increase”, the “serum concentration of IL-6” value was “significant increase” and the “serum concentration of IL-10” value was “significant increase”. Moreover, in data set [5], the “serum concentration of IL-18” value is reported as “no statistically significant differences”, the “serum concentration of TNFα” value is “significant increase” and the “serum concentration of TRL4” value is reported as “significant increase”.
